Laboratory results as given in US12268674B2, “Mi-2β inhibitor as an immunotherapy agent” (BioVentures, LLC, priority 2021, dated 2025).

Key:
Assay in all cases: ATPase profile (ATP acyl phosphate probe)
Type in all cases: binding
[1] = target: T1, ABCC3 (Homo sapiens, UniProt O15438)
T1 construct: host or cells: A375 cell lysate

[2] = target: T2, ABCF1 (Homo sapiens, UniProt Q8NE71); settings: ABCF1, SEQ ID NO: 16, ATP BS
T2 construct: to get the native cell lysate; host or cells: A375 cell lysate

[3] = target: T3, ACTR3 (Homo sapiens, UniProt P61158)
T3 construct: to get the native cell lysate; host or cells: A375 cell lysate

[4] = target: T4, BAT1 (Homo sapiens, UniProt Q13838); settings: BAT1, SEQ ID NO: 49, ATP BS
T4 construct: to get the native cell lysate; host or cells: A375 cell lysate

[5] = target: T5, CCT3 (Homo sapiens, UniProt P49368); settings: CCT3, SEQ ID NO: 52, ATP BS
T5 construct: to get the native cell lysate; host or cells: A375 cell lysate

[6] = target: T6, (Homo sapiens, UniProt Q9HCK8); settings: CIID8, SEQ ID NO: 57, ATP BS
T6 construct: to get the native cell lysate; host or cells: A375 cell lysate

[7] = target: T7, COASY (Homo sapiens, UniProt Q13057)
T7 construct: endogenous in cells; host or cells: A375 cell lysate
T7 sequence (Q13057 whole entry): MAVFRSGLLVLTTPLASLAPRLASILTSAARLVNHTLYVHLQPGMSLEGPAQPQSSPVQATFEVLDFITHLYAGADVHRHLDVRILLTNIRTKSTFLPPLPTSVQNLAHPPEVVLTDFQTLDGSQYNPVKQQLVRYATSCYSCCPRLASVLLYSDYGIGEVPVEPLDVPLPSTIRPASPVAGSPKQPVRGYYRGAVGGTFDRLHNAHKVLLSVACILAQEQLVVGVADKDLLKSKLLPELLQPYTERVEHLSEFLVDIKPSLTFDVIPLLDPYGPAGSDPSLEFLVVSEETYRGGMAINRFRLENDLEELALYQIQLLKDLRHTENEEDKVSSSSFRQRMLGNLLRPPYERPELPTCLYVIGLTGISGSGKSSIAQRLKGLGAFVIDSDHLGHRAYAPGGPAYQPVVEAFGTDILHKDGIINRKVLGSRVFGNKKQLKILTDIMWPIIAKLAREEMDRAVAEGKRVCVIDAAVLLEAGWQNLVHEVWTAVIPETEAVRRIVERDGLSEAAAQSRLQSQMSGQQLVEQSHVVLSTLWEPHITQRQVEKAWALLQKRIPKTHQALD

[8] = target: T8, DCTPP1 (Homo sapiens, UniProt Q9H773); settings: DCTPP1, SEQ ID NO: 65, ATP BS
T8 construct: endogenous in cells; host or cells: A375 cell lysate

[9] = target: T9, DDX21 (Homo sapiens, UniProt Q9NR30); settings: DDX21, SEQ ID NO: 67, ATP BS
T9 construct: endogenous in cells; host or cells: A375 cell lysate

[10] = target: T10, DDX28 (Homo sapiens, UniProt Q9NUL7); settings: DDX28, SEQ ID NO: 68, ATP BS
T10 construct: endogenous in cells; host or cells: A375 cell lysate

[11] = target: T11, DDX3X (Homo sapiens, UniProt O00571); settings: SEQ ID NO: 70, ATP BS
T11 construct: endogenous in cells; host or cells: A375 cell lysate

[12] = target: T12, DHX36 (Homo sapiens, UniProt Q9H2U1); settings: DHX36, SEQ ID NO: 73, ATP BS
T12 construct: endogenous in cells; host or cells: A375 cell lysate

[13] = target: T13, GATB (Homo sapiens, UniProt O75879)
T13 construct: endogenous in cells; host or cells: A375 cell lysate
T13 sequence (O75879 31-557): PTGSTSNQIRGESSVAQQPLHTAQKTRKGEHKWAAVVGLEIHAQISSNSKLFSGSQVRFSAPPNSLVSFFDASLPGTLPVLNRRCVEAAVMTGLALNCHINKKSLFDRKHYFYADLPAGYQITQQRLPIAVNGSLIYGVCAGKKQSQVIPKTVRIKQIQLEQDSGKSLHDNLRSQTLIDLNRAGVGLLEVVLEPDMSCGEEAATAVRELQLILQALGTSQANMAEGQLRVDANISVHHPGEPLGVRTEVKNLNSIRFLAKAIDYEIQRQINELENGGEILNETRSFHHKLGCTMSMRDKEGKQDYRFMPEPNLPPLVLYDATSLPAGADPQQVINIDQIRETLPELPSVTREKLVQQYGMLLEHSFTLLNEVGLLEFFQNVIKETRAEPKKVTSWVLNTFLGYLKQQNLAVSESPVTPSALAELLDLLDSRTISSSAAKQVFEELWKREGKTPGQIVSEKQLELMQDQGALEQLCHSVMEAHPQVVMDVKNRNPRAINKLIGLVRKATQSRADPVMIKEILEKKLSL
T13 sequence (Q9H0R6 whole entry partner): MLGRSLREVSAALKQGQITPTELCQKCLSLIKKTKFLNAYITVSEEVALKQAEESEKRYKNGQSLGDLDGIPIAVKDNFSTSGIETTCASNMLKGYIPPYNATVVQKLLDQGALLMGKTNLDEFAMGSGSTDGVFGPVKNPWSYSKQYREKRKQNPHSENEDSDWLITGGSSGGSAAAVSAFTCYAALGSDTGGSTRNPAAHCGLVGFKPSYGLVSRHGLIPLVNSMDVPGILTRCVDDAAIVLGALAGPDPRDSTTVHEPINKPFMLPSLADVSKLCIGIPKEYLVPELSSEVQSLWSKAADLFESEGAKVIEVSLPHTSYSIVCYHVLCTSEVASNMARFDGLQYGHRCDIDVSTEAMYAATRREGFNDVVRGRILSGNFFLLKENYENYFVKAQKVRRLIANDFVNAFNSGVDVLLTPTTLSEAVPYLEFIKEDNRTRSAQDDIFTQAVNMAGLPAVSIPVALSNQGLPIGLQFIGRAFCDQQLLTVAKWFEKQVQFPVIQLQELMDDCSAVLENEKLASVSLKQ
T13 sequence (O43716 58-136 partner): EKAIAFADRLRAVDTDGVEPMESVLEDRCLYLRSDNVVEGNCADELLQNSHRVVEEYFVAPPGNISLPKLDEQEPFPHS

[14] = tested on: HSP90AA, HSP90AA2, HSP90AB1; settings: HSP90AA2, HSP90AB1, SEQ ID NO: 96, ATP BS
[15] = target: T14, HSP90AB1 (Homo sapiens, UniProt P08238); settings: HSP90AB1, SEQ ID NO: 97, ATP BS
T14 construct: to get the native cell lysate; endogenous in cells; host or cells: A375

[16] = target: T15, HSPA2 (Homo sapiens, UniProt P54652)
T15 construct: to get the native cell lysate; endogenous in cells; host or cells: A375
T15 sequence (P54652 whole entry): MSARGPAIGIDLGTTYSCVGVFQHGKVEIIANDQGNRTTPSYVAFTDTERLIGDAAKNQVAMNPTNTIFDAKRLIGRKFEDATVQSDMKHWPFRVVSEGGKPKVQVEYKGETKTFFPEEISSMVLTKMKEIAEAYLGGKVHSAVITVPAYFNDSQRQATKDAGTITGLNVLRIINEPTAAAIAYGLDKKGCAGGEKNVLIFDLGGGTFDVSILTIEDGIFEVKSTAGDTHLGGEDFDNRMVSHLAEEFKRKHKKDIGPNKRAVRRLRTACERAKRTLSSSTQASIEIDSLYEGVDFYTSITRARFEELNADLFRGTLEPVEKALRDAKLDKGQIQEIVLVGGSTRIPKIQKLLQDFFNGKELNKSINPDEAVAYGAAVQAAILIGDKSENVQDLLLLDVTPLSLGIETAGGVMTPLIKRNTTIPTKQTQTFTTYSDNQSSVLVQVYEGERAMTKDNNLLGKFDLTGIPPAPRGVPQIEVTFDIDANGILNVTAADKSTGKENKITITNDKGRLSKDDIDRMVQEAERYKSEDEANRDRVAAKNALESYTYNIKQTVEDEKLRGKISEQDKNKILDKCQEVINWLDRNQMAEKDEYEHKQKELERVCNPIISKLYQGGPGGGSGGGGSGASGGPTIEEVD

[17] = target: T16, KARS (Homo sapiens, UniProt Q15046); settings: SEQ ID NO: 112, ATP BS
T16 construct: to get the native cell lysate; endogenous in cells; host or cells: A375

[18] = target: T17, ME2 (Homo sapiens, UniProt P23368)
T17 construct: to get the native cell lysate; endogenous in cells; host or cells: A375
T17 sequence (P23368 19-584): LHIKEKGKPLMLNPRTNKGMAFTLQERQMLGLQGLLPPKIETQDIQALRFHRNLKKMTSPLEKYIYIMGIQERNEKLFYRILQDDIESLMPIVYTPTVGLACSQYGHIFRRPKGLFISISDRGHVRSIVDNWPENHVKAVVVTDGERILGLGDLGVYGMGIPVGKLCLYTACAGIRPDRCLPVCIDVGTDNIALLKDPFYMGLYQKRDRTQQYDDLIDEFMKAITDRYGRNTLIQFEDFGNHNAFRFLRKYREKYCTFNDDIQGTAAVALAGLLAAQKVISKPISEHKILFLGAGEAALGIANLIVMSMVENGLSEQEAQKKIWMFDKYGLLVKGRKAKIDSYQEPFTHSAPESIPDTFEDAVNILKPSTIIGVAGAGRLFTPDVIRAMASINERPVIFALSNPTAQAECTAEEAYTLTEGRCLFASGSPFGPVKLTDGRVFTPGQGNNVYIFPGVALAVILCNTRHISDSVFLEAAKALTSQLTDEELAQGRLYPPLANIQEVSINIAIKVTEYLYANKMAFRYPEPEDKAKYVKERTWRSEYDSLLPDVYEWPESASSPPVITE

[19] = target: T18, NSF (Homo sapiens, UniProt P46459)
T18 construct: to get the native cell lysate; endogenous in cells; host or cells: A375

[20] = target: T19, NVL (Homo sapiens, UniProt O15381)
T19 construct: to get the native cell lysate; endogenous in cells; host or cells: A375
T19 sequence (O15381 whole entry): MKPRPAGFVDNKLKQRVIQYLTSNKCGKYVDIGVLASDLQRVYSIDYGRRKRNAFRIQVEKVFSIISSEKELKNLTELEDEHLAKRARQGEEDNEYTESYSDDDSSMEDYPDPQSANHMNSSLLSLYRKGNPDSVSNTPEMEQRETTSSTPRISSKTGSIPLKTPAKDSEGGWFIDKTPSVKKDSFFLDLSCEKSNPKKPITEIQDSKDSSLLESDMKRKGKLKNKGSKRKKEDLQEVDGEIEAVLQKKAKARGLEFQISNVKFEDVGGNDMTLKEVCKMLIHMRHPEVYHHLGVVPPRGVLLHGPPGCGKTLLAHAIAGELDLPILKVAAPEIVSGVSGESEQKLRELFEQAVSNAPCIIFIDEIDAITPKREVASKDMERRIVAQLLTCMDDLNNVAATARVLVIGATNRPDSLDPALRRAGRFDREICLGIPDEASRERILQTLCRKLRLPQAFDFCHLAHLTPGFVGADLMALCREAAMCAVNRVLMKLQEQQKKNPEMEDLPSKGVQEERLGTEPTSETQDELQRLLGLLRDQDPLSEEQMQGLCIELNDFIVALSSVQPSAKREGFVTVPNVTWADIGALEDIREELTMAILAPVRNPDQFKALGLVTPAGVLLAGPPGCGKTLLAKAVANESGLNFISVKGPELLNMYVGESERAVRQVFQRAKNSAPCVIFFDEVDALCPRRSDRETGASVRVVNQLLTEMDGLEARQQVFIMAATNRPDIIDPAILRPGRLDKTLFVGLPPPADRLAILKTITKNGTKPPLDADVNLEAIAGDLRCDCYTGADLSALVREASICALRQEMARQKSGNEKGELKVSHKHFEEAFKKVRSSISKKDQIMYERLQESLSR

[21] = target: T20, PCCA (Homo sapiens, UniProt P05165)
T20 construct: to get the native cell lysate; endogenous in cells; host or cells: A375
T20 sequence (P05165 53-728): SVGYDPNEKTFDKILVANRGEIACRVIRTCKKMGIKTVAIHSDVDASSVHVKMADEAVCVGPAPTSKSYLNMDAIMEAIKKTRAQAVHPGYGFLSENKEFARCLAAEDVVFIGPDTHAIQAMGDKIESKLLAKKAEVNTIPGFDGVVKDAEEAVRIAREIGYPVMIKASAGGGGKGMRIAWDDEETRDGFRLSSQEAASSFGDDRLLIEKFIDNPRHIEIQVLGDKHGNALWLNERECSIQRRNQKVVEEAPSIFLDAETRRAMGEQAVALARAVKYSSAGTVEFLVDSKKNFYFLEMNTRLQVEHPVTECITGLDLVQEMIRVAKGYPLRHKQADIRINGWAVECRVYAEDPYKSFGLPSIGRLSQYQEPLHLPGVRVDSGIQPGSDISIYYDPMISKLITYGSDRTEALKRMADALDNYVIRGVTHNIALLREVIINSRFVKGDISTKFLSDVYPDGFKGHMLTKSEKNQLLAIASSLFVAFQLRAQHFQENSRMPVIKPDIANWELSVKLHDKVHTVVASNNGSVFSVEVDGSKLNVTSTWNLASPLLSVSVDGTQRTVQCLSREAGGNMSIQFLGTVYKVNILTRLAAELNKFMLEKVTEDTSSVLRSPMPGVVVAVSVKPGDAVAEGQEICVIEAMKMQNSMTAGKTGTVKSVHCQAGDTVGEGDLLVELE
T20 sequence (P05166 29-539 partner): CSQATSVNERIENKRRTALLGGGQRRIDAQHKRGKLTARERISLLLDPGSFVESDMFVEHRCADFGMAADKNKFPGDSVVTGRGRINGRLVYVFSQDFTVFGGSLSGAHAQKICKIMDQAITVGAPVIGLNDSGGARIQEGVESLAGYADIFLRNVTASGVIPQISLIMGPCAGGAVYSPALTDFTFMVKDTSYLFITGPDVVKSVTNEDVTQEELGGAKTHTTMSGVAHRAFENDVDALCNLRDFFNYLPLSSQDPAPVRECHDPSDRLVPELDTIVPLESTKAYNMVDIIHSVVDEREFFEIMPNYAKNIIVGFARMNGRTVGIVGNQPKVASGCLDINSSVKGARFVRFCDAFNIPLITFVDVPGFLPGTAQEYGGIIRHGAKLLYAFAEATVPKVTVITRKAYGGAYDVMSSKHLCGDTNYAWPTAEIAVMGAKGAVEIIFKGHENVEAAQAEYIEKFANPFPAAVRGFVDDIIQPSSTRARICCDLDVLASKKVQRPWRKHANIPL

[22] = target: T21, PFAS (Homo sapiens, UniProt O15067); settings: SEQ ID NO: 157, ATP BS
T21 construct: to get the native cell lysate; endogenous in cells; host or cells: A375 cell lysate

[23] = target: T22, PKM, PKM2 (Homo sapiens, UniProt P14618); settings: PKM2, SEQ ID NO: 161, ATP BS
T22 construct: to get the native cell lysate; endogenous in cells; host or cells: A375 cell lysate

[24] = tested on: PRPS1L1, PRPS2; settings: PRPS1L1, PRPS2, SEQ ID NO: 172, ATP BS
[25] = target: T23, RFK (Homo sapiens, UniProt Q969G6); settings: SEQ ID NO: 187, ATP BS
T23 construct: to get the native cell lysate; endogenous in cells; host or cells: A375 cell lysate

[26] = target: T24, RUVBL1 (Homo sapiens, UniProt Q9Y265); settings: RUVBL1, SEQ ID NO: 188, ATP BS
T24 construct: to get the native cell lysate; endogenous in cells; host or cells: A375 cell lysate

[27] = target: T25, TCP1 (Homo sapiens, UniProt P17987); settings: TCP1, SEQ ID NO: 200, ATP BS
T25 construct: to get the native cell lysate; endogenous in cells; host or cells: A375 cell lysate

[28] = tested on: TOP2A, TOP2B; settings: SEQ ID NO: 202, ATP BS
[29] = target: T26, UPF1 (Homo sapiens, UniProt Q92900)
T26 construct: to get the native cell lysate; endogenous in cells; host or cells: A375 cell lysate

Cn1c(=O)[nH]c2ccc(-c3cccc(C(=O)NC4CCn5ccnc5C4)c3)cc21 (stereo not drawn) [Z36-MP5, 3-(3-methyl-2-oxo-2,3-dihydro-1H-benzo[d]imidazol-5-yl)-N-(5,6,7,8-tetrahydroimidazo[1,2-a]pyridin-7-yl)benzamide]
Inhibition (%) by 1 μM Z36-MP5 ([1]; ABCC3, SEQ ID NO: 9, ATP BS): 4.57% | Inhibition (%) by 1 μM Z36-MP5 ([1]; ABCC3, SEQ ID NO: 10, ATP BS): 9.43% | Inhibition (%) by 1 μM Z36-MP5 [2]: −8.08% | Inhibition (%) by 1 μM Z36-MP5 ([3]; ACTR3, SEQ ID NO: 27, ATP BS): 5.36% | Inhibition (%) by 1 μM Z36-MP5 ([3]; ACTR3, SEQ ID NO: 28, ATP BS): −0.28% | Inhibition (%) by 1 μM Z36-MP5 [4]: −9.58% | Inhibition (%) by 1 μM Z36-MP5 [5]: 10.09% | Inhibition (%) by 1 μM Z36-MP5 [6]: −44.26% | Inhibition (%) by 1 μM Z36-MP5 ([7]; SEQ ID NO: 62, ATP BS): −3.39% | Inhibition (%) by 1 μM Z36-MP5 ([7]; SEQ ID NO: 63, ATP BS): 23.55% | Inhibition (%) by 1 μM Z36-MP5 [8]: 12.74% | Inhibition (%) by 1 μM Z36-MP5 [9]: 3.05% | Inhibition (%) by 1 μM Z36-MP5 [10]: −5.30% | Inhibition (%) by 1 μM Z36-MP5 [11]: 11.22% | Inhibition (%) by 1 μM Z36-MP5 [12]: −20.12% | Inhibition (%) by 1 μM Z36-MP5 ([13]; SEQ ID NO: 83, ATP BS): −15.35% | Inhibition (%) by 1 μM Z36-MP5 ([13]; SEQ ID NO: 84, ATP BS): −4.32% | Inhibition (%) by 1 μM Z36-MP5 [14]: −5.50% | Inhibition (%) by 1 μM Z36-MP5 [15]: −3.22% | Inhibition (%) by 1 μM Z36-MP5 ([16]; HSPA2, SEQ ID NO: 102, ATP BS): −1.50% | Inhibition (%) by 1 μM Z36-MP5 ([16]; HSPA2, SEQ ID NO: 103, ATP BS): −5.18% | Inhibition (%) by 1 μM Z36-MP5 [17]: 2.22% | Inhibition (%) by 1 μM Z36-MP5 ([18]; ME2, SEQ ID NO: 122, ATP BS): −6.47% | Inhibition (%) by 1 μM Z36-MP5 ([18]; ME2, SEQ ID NO: 123, ATP BS): −16.71% | Inhibition (%) by 1 μM Z36-MP5 ([19]; SEQ ID NO: 138, ATP BS): 6.03% | Inhibition (%) by 1 μM Z36-MP5 ([19]; SEQ ID NO: 139, ATP BS): −6.18% | Inhibition (%) by 1 μM Z36-MP5 ([20]; SEQ ID NO: 148, ATP BS): −1.13% | Inhibition (%) by 1 μM Z36-MP5 ([20]; SEQ ID NO: 149, ATP BS): −8.26% | Inhibition (%) by 1 μM Z36-MP5 ([21]; SEQ ID NO: 153, ATP BS): −5.50% | Inhibition (%) by 1 μM Z36-MP5 ([21]; SEQ ID NO: 154, ATP BS): −10.70% | Inhibition (%) by 1 μM Z36-MP5 [22]: −4.58% | Inhibition (%) by 1 μM Z36-MP5 [23]: 28.24% | Inhibition (%) by 1 μM Z36-MP5 [24]: −13.63% | Inhibition (%) by 1 μM Z36-MP5 [25]: 10.06% | Inhibition (%) by 1 μM Z36-MP5 [26]: −15.57% | Inhibition (%) by 1 μM Z36-MP5 [27]: 6.76% | Inhibition (%) by 1 μM Z36-MP5 [28]: 11.93% | Inhibition (%) by 1 μM Z36-MP5 ([29]; UPF1, SEQ ID NO: 223, ATP BS): −1.93% | Inhibition (%) by 1 μM Z36-MP5 ([29]; UPF1, SEQ ID NO: 224, ATP BS): −3.51%
